Source: PMC12055641, “The Study of Antistaphylococcal Potential of Omiganan and Retro-Omiganan Under Flow Conditions” (Probiotics and Antimicrobial Proteins, 2024)
Converted amounts (≈) assume the structure as drawn.

What was measured:
S. aureus ATCC 25923 = assay: microbe, parasite or virus in culture
From the text: (§1) Clinical S. aureus strains were collected from patients with atopic dermatitis during their visits to the Outpatient Clinic and hospitalization in the Department of Dermatology, Venereology and Allergology at Medical University of Gdańsk (following the approval from the ethics committee, Approval Number NKBBN/242–477/2014). Reference strains of S. aureus ATCC 25923, S. aureus ATCC 33591, S. aureus ATCC 9144, and S. aureus ATCC 12598 were obtained from the American Type Culture Collection. All the strains were stored at − 80 °C in Roti®-Store cryo vials (Carl Roth GmbH, Karlsruhe, Germany) and before the tests were transferred into fresh Mueller–Hinton Medium (BioMaxima, Lublin, Poland) and incubated for 24 h at 37 °C. Subsequently, each bacterial inoculum was seeded on Mueller–Hinton agar plates (BioMaxima) and incubated again for 24 h. The cultures prepared in this way were used in further antimicrobial assays. Minimum inhibitory concentrations (MICs) were determined according to the Clinical and Laboratory Standards Institute recommendations. […] The experiments were conducted on 96-well microtiter plates, with a final volume of 100 μL. Additionally, in the case of daptomycin, the medium was supplemented with Ca^2+ (50 mg/L). Cell densities were adjusted spectrophotometrically (Multiskan™ GO Microplate Spectrophotometer, Thermo Scientific) at 600 nm. The MICs were taken as the lowest drug concentration at which a visible growth of the microorganisms was inhibited. Minimum biofilm eliminating concentrations (MBECs) were determined on 96-well flat-bottomed microtiter polystyrene plates with resazurin (7-hydroxy-3H-phenoxazin-3-one 10-oxide sodium salt) as a cell viability reagent. To do this, the plates were filled with 100 μL of the initial inoculums of bacteria (0.5 × 10^7 CFU/mL) in the Mueller–Hinton broth and incubated for 24 h at 37 °C. […] After 24 h of incubation, 20 μL of resazurin (4 mg/mL) was added to each well and the MBEC values were read. Minimum biofilm inhibitory concentrations (MBICs) were also determined on 96-well flat-bottomed microtiter polystyrene plates as described previously. To do this, 50 μL of the compounds in the concentration range, diluted MHB, were prepared. Subsequently, the 50 μL of the staphylococcal inoculums were added to reach the same density of bacteria as that in the MBEC assay. After 24 h of incubation at 37 °C, the wells were rinsed three times with PBS and the fresh medium (100 μL) with resazurin (0.6 mg/mL) was added. Then, after 1 h of incubation, MBICs were read. […] All experiments were conducted in triplicate.
(§2) Formation of the biofilm inside the PDMS flow chambers was performed using three peristaltic pumps working simultaneously (LP-pump, Kamush, Lipopharm, Poland) and sterile Tygon® 3350 silicone hoses (2.4 × 0.8 × 0.8 mm) with a length of 30 and 50 cm for inlet and outlet, respectively. Bacterial suspensions were prepared (0.5 × 10^7 CFU/mL) in sterile 50-mL test tubes, which were placed in a heating block at 37 °C. Before experiments, all channels were assessed for tightness and sterilized using a 70% 2-propanol solution (10 min, flow rate 1 mL/min) and rinsed with sterile PBS solution (10 min, flow 0.1 mL/min). The formation of biofilm inside the channels was divided into three stages: (1) adhesion—at this stage S. aureus suspensions were passed through the channels for 4 h at a flow rate of 0.1 mL/min; (2) rinsing—the previously used hoses were replaced with new sterile ones, and the channels were rinsed with sterile PBS solution for 10 min at a flow rate of 0.1 mL/min; (3) biofilm growth—after flushing the channels, the silicone hoses were placed in tubes with MHB medium, which was passed through the channels for 24 h at a flow rate of 0.1 mL/min. All experiments included growth and sterility controls.
(§3) This assay was conducted also on the S. aureus ATCC 25923 and S. aureus 33,591 (MRSA) strains.

[1] = test system: S. aureus ATCC 33591 (MRSA); assay: microbe, parasite or virus in culture
From the text: as §1, §2, §3

[2] = test system: S. aureus clinical strain 043SC (MRSA); parameters: method as in earlier work; settings: clinical isolate 043SC (MRSA), skin of patient with furuncle folliculitis; cited from earlier work
[3] = test system: S. aureus clinical strain 004N (MRSA); parameters: method as in earlier work; settings: clinical isolate 004N (MRSA), nasal swab; cited from earlier work
[4] = test system: S. aureus clinical strain 005S; parameters: method as in earlier work; settings: clinical isolate 005S, skin; cited from earlier work
[5] = test system: S. aureus clinical strain 060S; parameters: method as in earlier work; settings: clinical isolate 060S, skin; cited from earlier work
[6] = test system: S. aureus clinical strain 031S; parameters: method as in earlier work; settings: clinical isolate 031S, skin; cited from earlier work
[7] = test system: S. aureus clinical strain 015N (MRSA); parameters: method as in earlier work; settings: clinical isolate 015N (MRSA), nasal swab; cited from earlier work
[8] = test system: S. aureus clinical strain 030N; parameters: method as in earlier work; settings: clinical isolate 030N, nasal swab; cited from earlier work
[9] = test system: S. aureus clinical strain 009S; parameters: method as in earlier work; settings: clinical isolate 009S, skin; cited from earlier work
[10] = test system: S. aureus clinical strain 051N (MRSA); parameters: method as in earlier work; settings: clinical isolate 051N (MRSA), nasal swab; cited from earlier work
[11] = S. aureus 25923 biofilm treated under flow with Retro-Omiganan (half MBEC) for 24 h
[12] = S. aureus 25923 biofilm treated under flow with Retro-Omiganan (half MBEC) for 48 h
[13] = S. aureus 25923 biofilm treated under flow with Retro-Omiganan (half MBEC) for 72 h
[14] = Staphylococcus aureus, ATCC25923, 0 h
[15] = Staphylococcus aureus, ATCC25923, 24 h
[16] = Staphylococcus aureus, ATCC25923, 48 h
[17] = Staphylococcus aureus, ATCC25923, 72 h
[18] = S. aureus ATCC 33591 (MRSA) biofilm treated under flow with Retro-Omiganan (half MBEC) for 24 h
[19] = S. aureus ATCC 33591 (MRSA) biofilm treated under flow with Retro-Omiganan (half MBEC) for 48 h
[20] = S. aureus ATCC 33591 (MRSA) biofilm treated under flow with Retro-Omiganan (half MBEC) for 72 h

SMILES	MIC (S. aureus ATCC 25923; [11]) [µg/mL]	MIC (S. aureus ATCC 25923; [12]) [µg/mL]	MIC (S. aureus ATCC 25923; [13]) [µg/mL]	MIC (S. aureus ATCC 25923; [14]) [µg/mL]	MIC (S. aureus ATCC 25923; [15]) [µg/mL]	MIC (S. aureus ATCC 25923; [16]) [µg/mL]	MIC (S. aureus ATCC 25923; [17]) [µg/mL]	MIC [1, 18] [µg/mL]	MIC [1, 19] [µg/mL]	MIC [1, 20] [µg/mL]	MIC ([1]; Staphylococcus aureus, 0 h) [µg/mL]	Antimicrobial susceptibility (MIC) [2] [µg/mL]	Antimicrobial susceptibility (MIC) [3] [µg/mL]	Antimicrobial susceptibility (MIC) [4] [µg/mL]	Antimicrobial susceptibility (MIC) [5] [µg/mL]	Antimicrobial susceptibility (MIC) [6] [µg/mL]	Antimicrobial susceptibility (MIC) [7] [µg/mL]	Antimicrobial susceptibility (MIC) [8] [µg/mL]	Antimicrobial susceptibility (MIC) [9] [µg/mL]	Antimicrobial susceptibility (MIC) [10] [µg/mL]	also measured
CCC[C@@H]1C[C@@H](C(=O)N[C@@H]([C@H]2O[C@H](SC)[C@H](O)[C@@H](O)[C@H]2O)[C@@H](C)O)N(C)C1 [Lincomycin]	1.0 (≈ 2.46 µM)	1.0 (≈ 2.46 µM)	1.0 (≈ 2.46 µM)	1 (≈ 2.46 µM)	1 (≈ 2.46 µM)	1 (≈ 2.46 µM)	1 (≈ 2.46 µM)	> 128	> 128	> 128	> 128	> 512	1	1	0.5	0.5	1	0.5	0.25	1	MIC ([1]; Staphylococcus aureus, 24 h): > 128 µg/mL; MIC ([1]; Staphylococcus aureus, 48 h): > 128 µg/mL; MIC ([1]; Staphylococcus aureus, 72 h): > 128 µg/mL
CC(=O)NC[C@H]1CN(c2ccc(N3CCOCC3)c(F)c2)C(=O)O1 [Linezolid]	1.0 (≈ 2.96 µM)	1.0 (≈ 2.96 µM)	1.0 (≈ 2.96 µM)	1 (≈ 2.96 µM)	1 (≈ 2.96 µM)	1 (≈ 2.96 µM)	1 (≈ 2.96 µM)	1.0 (≈ 2.96 µM)	1.0 (≈ 2.96 µM)	1.0 (≈ 2.96 µM)	1 (≈ 2.96 µM)	2	1	0.5	1	2	2	0.5	0.25	2	MIC ([1]; Staphylococcus aureus, 24 h): 1 µg/mL (≈ 2.96 µM); MIC ([1]; Staphylococcus aureus, 48 h): 1 µg/mL (≈ 2.96 µM); MIC ([1]; Staphylococcus aureus, 72 h): 1 µg/mL (≈ 2.96 µM)
C/C(=C\C(=O)OCCCCCCCCC(=O)O)C[C@@H]1OC[C@H](C[C@@H]2O[C@H]2[C@@H](C)[C@H](C)O)[C@@H](O)[C@H]1O [Mupirocin]	≤ 0.25	≤ 0.25	≤ 0.25	≤ 0.25	≤ 0.25	≤ 0.25	≤ 0.25	≤ 0.25	≤ 0.25	≤ 0.25	≤ 0.25	0.5	0.125	> 512	> 512	32	0.25	0.25	> 512	0.25	MIC ([1]; Staphylococcus aureus, 24 h): ≤ 0.25 µg/mL; MIC ([1]; Staphylococcus aureus, 48 h): ≤ 0.25 µg/mL; MIC ([1]; Staphylococcus aureus, 72 h): ≤ 0.25 µg/mL
CN(C)[C@@H]1C(O)=C(C(N)=O)C(=O)[C@@]2(O)C(O)=C3C(=O)c4c(O)cccc4[C@@](C)(O)[C@H]3C[C@@H]12 [Tetracycline]	–	–	–	–	–	–	–	–	–	–	–	32	0.5	0.5	0.125	0.25	0.5	0.5	1	0.25	MIC (S. aureus ATCC 25923; Staphylococcus aureus, ATCC25923, 0 h, S. aureus 25923, time 0 h (baseline, before peptide exposure)): ≤ 0.25 µg/mL; MIC (S. aureus ATCC 25923; Staphylococcus aureus, ATCC25923, 24 h, S. aureus 25923 biofilm treated under flow with Omiganan (half MBEC) for 24 h): ≤ 0.25 µg/mL; MIC (S. aureus ATCC 25923; Staphylococcus aureus, ATCC25923, 24 h, S. aureus 25923 biofilm treated under flow with Retro-Omiganan (half MBEC) for 24 h): ≤ 0.25 µg/mL; MIC (S. aureus ATCC 25923; Staphylococcus aureus, ATCC25923, 48 h, S. aureus 25923 biofilm treated under flow with Omiganan (half MBEC) for 48 h): ≤ 0.25 µg/mL; MIC (S. aureus ATCC 25923; Staphylococcus aureus, ATCC25923, 48 h, S. aureus 25923 biofilm treated under flow with Retro-Omiganan (half MBEC) for 48 h): ≤ 0.25 µg/mL; MIC (S. aureus ATCC 25923; Staphylococcus aureus, ATCC25923, 72 h, S. aureus 25923 biofilm treated under flow with Omiganan (half MBEC) for 72 h): ≤ 0.25 µg/mL; MIC (S. aureus ATCC 25923; Staphylococcus aureus, ATCC25923, 72 h, S. aureus 25923 biofilm treated under flow with Retro-Omiganan (half MBEC) for 72 h): ≤ 0.25 µg/mL; MIC ([1]; Staphylococcus aureus, ATCC33591|MRSA, 0 h, S. aureus ATCC 33591 (MRSA), time 0 h (baseline, before peptide exposure)): 64 µg/mL (≈ 144 µM); MIC ([1]; Staphylococcus aureus, ATCC33591|MRSA, 24 h, S. aureus ATCC 33591 (MRSA) biofilm treated under flow with Omiganan (half MBEC) for 24 h): 64 µg/mL (≈ 144 µM); MIC ([1]; Staphylococcus aureus, ATCC33591|MRSA, 24 h, S. aureus ATCC 33591 (MRSA) biofilm treated under flow with Retro-Omiganan (half MBEC) for 24 h): 64 µg/mL (≈ 144 µM); MIC ([1]; Staphylococcus aureus, ATCC33591|MRSA, 48 h, S. aureus ATCC 33591 (MRSA) biofilm treated under flow with Omiganan (half MBEC) for 48 h): 64 µg/mL (≈ 144 µM); MIC ([1]; Staphylococcus aureus, ATCC33591|MRSA, 48 h, S. aureus ATCC 33591 (MRSA) biofilm treated under flow with Retro-Omiganan (half MBEC) for 48 h): 64 µg/mL (≈ 144 µM); MIC ([1]; Staphylococcus aureus, ATCC33591|MRSA, 72 h, S. aureus ATCC 33591 (MRSA) biofilm treated under flow with Omiganan (half MBEC) for 72 h): 64 µg/mL (≈ 144 µM); MIC ([1]; Staphylococcus aureus, ATCC33591|MRSA, 72 h, S. aureus ATCC 33591 (MRSA) biofilm treated under flow with Retro-Omiganan (half MBEC) for 72 h): 64 µg/mL (≈ 144 µM)
